Some test systems named below: HCT-15 colon; SF-295 CNS; SNB-75 CNS; HOP-92 NSCLC; SK-MEL-5 melanoma; MCF7 breast; T-47D breast; 786-0 renal; CAKI-1 renal; A498 renal.
Common to all, as to test: growth of human tumour cells (NCI), 48 h

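Following 48 hours of exposure in 96-well plates, responses at five concentrations were used to interpolate endpoints linearly. GI50 = concentration required for 50% inhibition of growth. TGI denotes the concentration required for complete inhibition of growth.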 Where only a bound is given, the exact number is not on record here.

Regarding `Clc1ccc(-c2nn3ncccc3c2-c2ccnc(Nc3ccccc3)n2)cc1`, the GI50 in the experiment on HCT-15 colon is 7.94 µM; in the experiment with SF-295 CNS it was 9.67 µM; with SNB-75 CNS, 6.31 µM; in the experiment with HOP-92 NSCLC it was 2.89 µM; with SK-MEL-5 melanoma it was over 12.4 µM; in the experiment on MCF7 breast, 7.17 µM. The GI50 is 10.2 µM with T-47D breast, 8.2 µM in the experiment on 786-0 renal, 2.5 µM with CAKI-1 renal and 4.42 µM in the experiment with A498 renal. The TGI in the experiment with HCT-15 colon was over 25 µM; in the experiment with SF-295 CNS, over 25 µM; in the experiment on SNB-75 CNS, over 25 µM; in the experiment on HOP-92 NSCLC, over 21.6 µM; in the experiment on SK-MEL-5 melanoma, over 25 µM; in the experiment on MCF7 breast, over 25 µM. The TGI in the experiment with T-47D breast is over 25 µM; in the experiment on 786-0 renal, over 25 µM; in the experiment with CAKI-1 renal it was over 22.2 µM; with A498 renal, over 23.3 µM.

With `CCCN(CCC)CCCNC(=O)c1cc2c(-c3ccc(OC)c(OC)c3)nn(C)c2s1`, the GI50 with HCT-15 colon was 25 µM; in the experiment with SF-295 CNS it was 21.6 µM; in the experiment with SNB-75 CNS it was 12.3 µM; with HOP-92 NSCLC, 6.15 µM; in the experiment on SK-MEL-5 melanoma it was 15.4 µM; in the experiment on MCF7 breast, 18.2 µM. The GI50 was 27.5 µM in the experiment on T-47D breast, 17.9 µM in the experiment with 786-0 renal, 27.1 µM in the experiment on CAKI-1 renal and 3.06 µM in the experiment on A498 renal. Moreover, the TGI is over 100 µM in the experiment with HCT-15 colon; 49.4 µM with SF-295 CNS; 40.5 µM in the experiment with SNB-75 CNS; 46.9 µM in the experiment with HOP-92 NSCLC; 29 µM in the experiment on SK-MEL-5 melanoma; 42.1 µM in the experiment with MCF7 breast. The TGI in the experiment with T-47D breast was 98.7 µM; with 786-0 renal, 91 µM; in the experiment on CAKI-1 renal, over 100 µM; in the experiment with A498 renal, over 100 µM.

Take `O=C(c1cccs1)c1c(C(F)(F)F)n([O-])c2ccc(F)cc2[n+]1=O`: the GI50 with HCT-15 colon is 0.435 µM; with SF-295 CNS, 1.76 µM; with SNB-75 CNS, 1.47 µM; with HOP-92 NSCLC it was 0.914 µM; in the experiment on SK-MEL-5 melanoma it was 1.22 µM; in the experiment on MCF7 breast it was 0.454 µM. For the same compound, the GI50 was 0.69 µM in the experiment on T-47D breast, 1.32 µM with 786-0 renal, 1.62 µM in the experiment with CAKI-1 renal and 1.95 µM in the experiment with A498 renal. The TGI in the experiment on HCT-15 colon was determined as 1.64 µM; with SF-295 CNS, 3.58 µM; in the experiment with SNB-75 CNS, 2.82 µM; with HOP-92 NSCLC it was 2.48 µM; with SK-MEL-5 melanoma, 2.51 µM; with MCF7 breast it was 3.12 µM. Also, the TGI in the experiment on T-47D breast came to 3.23 µM; in the experiment with 786-0 renal, 2.74 µM; in the experiment with CAKI-1 renal, 3.14 µM; in the experiment on A498 renal, 4.08 µM.

Regarding `CCOC(=O)C1=C(C)NC2SC(=O)/C(=C\c3ccccc3)N2C1c1ccccc1` (stereo not given), the GI50 in the experiment on HCT-15 colon is over 100 µM; with SF-295 CNS, over 100 µM; with SNB-75 CNS, over 100 µM; with HOP-92 NSCLC, over 100 µM; in the experiment on SK-MEL-5 melanoma, 16.1 µM; in the experiment with MCF7 breast it was over 100 µM. The GI50 in the experiment on T-47D breast is 38.2 µM; in the experiment on 786-0 renal, over 100 µM; in the experiment with CAKI-1 renal, over 100 µM; with A498 renal, over 100 µM. Further, the TGI with HCT-15 colon, in the experiment with SF-295 CNS, in the experiment with SNB-75 CNS, with HOP-92 NSCLC, with SK-MEL-5 melanoma and with MCF7 breast was over 100 µM in each case. For the same compound, the TGI with T-47D breast, with 786-0 renal, in the experiment on CAKI-1 renal and with A498 renal was over 100 µM throughout.

For `C/C(=C\CCc1ccoc1)CC/C=C(\C)CCCN1CCC(CO)CC1`, the GI50 is 3.07 µM in the experiment with HCT-15 colon; 2.28 µM in the experiment with SF-295 CNS; 2.1 µM with SNB-75 CNS; 1.44 µM in the experiment with HOP-92 NSCLC; 1.5 µM in the experiment with SK-MEL-5 melanoma; 3.24 µM in the experiment on MCF7 breast. Further, the GI50 with T-47D breast was 2.51 µM; in the experiment on 786-0 renal it was 2.35 µM; in the experiment with CAKI-1 renal, 4.26 µM; in the experiment on A498 renal it was 1.96 µM. Also, the TGI in the experiment with HCT-15 colon came to 12 µM; in the experiment on SF-295 CNS, 5.41 µM; in the experiment on SNB-75 CNS, 7.79 µM; with HOP-92 NSCLC, 6.16 µM; in the experiment with SK-MEL-5 melanoma, 2.84 µM; in the experiment with MCF7 breast, 11.6 µM. For the same compound, the TGI worked out at 8.92 µM in the experiment with T-47D breast, 5.37 µM in the experiment on 786-0 renal, 16.5 µM with CAKI-1 renal and 5.96 µM in the experiment on A498 renal.

On to `N#CN1CCC[C@H]1C(=O)N1CCc2c(-c3[nH]nc4ncccc34)cccc21`, for which the GI50 is under 0.01 µM in the experiment on HCT-15 colon; 0.281 µM in the experiment with SF-295 CNS; 0.211 µM in the experiment on SNB-75 CNS; under 0.01 µM in the experiment on HOP-92 NSCLC; 0.0606 µM in the experiment with SK-MEL-5 melanoma; under 0.01 µM in the experiment with MCF7 breast. The GI50 was 0.0227 µM with T-47D breast, under 0.01 µM in the experiment on 786-0 renal, under 0.01 µM in the experiment on CAKI-1 renal and under 0.0114 µM in the experiment with A498 renal. The TGI in the experiment with HCT-15 colon came to 11.3 µM; in the experiment with SF-295 CNS it was 4.41 µM; with SNB-75 CNS, 2.78 µM; in the experiment on HOP-92 NSCLC, 0.0809 µM; with SK-MEL-5 melanoma it was 0.126 µM; in the experiment with MCF7 breast, 11 µM. Moreover, the TGI in the experiment with T-47D breast was found to be 15 µM; in the experiment on 786-0 renal, 11.5 µM; with CAKI-1 renal it was 1.46 µM; with A498 renal, 0.148 µM.

As to `Cc1nc(/N=C(\N)NC(=O)Nc2ccccc2Cl)sc1C`, the GI50 in the experiment with HCT-15 colon was 0.25 µM; in the experiment with SF-295 CNS, 0.363 µM; in the experiment with SNB-75 CNS, 0.226 µM; with HOP-92 NSCLC it was 1.54 µM; in the experiment on SK-MEL-5 melanoma, 0.508 µM; in the experiment on MCF7 breast it was 0.359 µM. The GI50 in the experiment on T-47D breast was 0.519 µM; in the experiment with 786-0 renal, 0.639 µM; in the experiment on CAKI-1 renal it was 0.435 µM; with A498 renal, 0.249 µM. In addition, the TGI was over 100 µM with HCT-15 colon; 2.7 µM in the experiment on SF-295 CNS; 0.91 µM in the experiment on SNB-75 CNS; 15.8 µM with HOP-92 NSCLC; 7.39 µM in the experiment on SK-MEL-5 melanoma; over 100 µM in the experiment with MCF7 breast. The TGI was over 100 µM in the experiment with T-47D breast, 3.25 µM in the experiment with 786-0 renal, 9.41 µM in the experiment with CAKI-1 renal and 1.1 µM with A498 renal.

The record behind these values is PubChem BioAssay (NCI).
